Values quoted from earlier work in paper PMC4358366, “Identification of ‘erasers’ for lysine crotonylated histone marks using a chemical proteomics approach” (eLife, 2014).
“Also recorded” adds a separate entry of the source. Where no end group is shown, it is not given here. The star is where a group is joined. Crotonyl(E) = C/C=C/C(=O)*

How the values were obtained:
Conditions in all cases: H3K9Cr peptide, residues 5–13; [32P]-NAD TLC; ref Feldman et al., 2013; cited from earlier work
Sirt1 = system: Sirt1
From the text: (§1) Lysine crotonylation (Kcr) is a newly discovered histone PTM that is specifically enriched at active gene promoters and potential enhancers in mammalian cell genomes ([Tan et al., 2011]). […] However, further mechanistic and functional studies of histone Kcr have been limited by a lack of knowledge of the enzymes that catalyze the addition or removal of Kcr in cells. In a systematic screening of the activities of the ... || Siruins were initially recognized as NAD-dependent deacetylases ([Imai et al., 2000]; [Landry et al., 2000]; [Sauve et al., 2006]). […] In this study ...

Sirt2 = system: Sirt2
From the text: as §1

Sirt3 = system: Sirt3
From the text: Siruins were initially recognized as NAD-dependent deacetylases ([Imai et al., 2000]; [Landry et al., 2000]; [Sauve et al., 2006]). […] In this study ...

## histone H3K9Cr peptide: H3K9Cr peptide of Denu's study, residues 5–13 of histone H3 (QTARK(Crotonyl(E))STGG; UniProt P68431 6-14, looked up, fragment)
Sirt1
  decrotonylase activity of Sirt1 (literature): exhibited decrotonylase activity; also recorded: can catalyze the removal of a crotonyl group
Sirt2
  decrotonylase activity of Sirt2 (literature): exhibited decrotonylase activity; also recorded: can catalyze the removal of a crotonyl group
Sirt3
  decrotonylase activity of Sirt3 (literature): totally inactive
